Measurements as given in patent US11931347B2, “Method of screening for agents for differentiating stem cells” (MINERVA BIOTECHNOLOGIES CORPORATION, priority 2015, dated 2024).
“Also recorded” adds a separate entry of the source.

Experiments:
[1] = system: human naïve state stem cells; assay: stem cell drug screening assay on naïve state stem cells; type: cell-based; conditions: 500 nM or 1 uM, cells from NME7AB or NME1 dimers, growth factor absent
[2] = system: human primed state stem cells; assay: stem cell drug screening assay on primed state stem cells; type: cell-based; conditions: treated for 3 days, bFGF absent
Experimental: The stem cell screening assay, was performed in both the presence and absence of the stem cell growth factors: NME7AB for growing naïve stem cells or FGF for growing primed stem cells. If the cognate growth factor was present, then the biological or small molecule would have to compete away the growth factor to get an effect. Therefore, we expected to see more of an effect when the growth factor, FGF for primed stem cells or NME7AB or NME1 dimers for naïve stem cells, was absent. The effect of the compounds on stem cells was visually determined and compounds were ranked 0-4, with 4 being the greatest effect and 0 being no observable effect. The major effect that was observed was a change from pluripotent stem cell morphology, which is a cobblestone pattern of small round cells with a large nucleus to cytoplasm ratio, to that of differentiating stem cells, which are elongated, large and flattened cells with a smaller nucleus to cytoplasm ratio. […] The compounds were added to a final concentration of 6 uM to either naïve state stem cells or primed state stem cells. In this particular case, the naïve state stem cells were maintained in a naïve state by culturing in a media containing NME7AB or NME1 dimers. However, other methods such as 2i and 5i (Silva et al., 2008, Nichols and Smith, 2009, Theunissen et al., 2014)] can be used to maintain stem cells in a more naïve state. In this case primed state stem cells were cultured in bFGF over a layer of MEFs, although it is known that any bFGF containing media will maintain stem cells in the primed state.
Stem cells whether embryonic or induced pluripotent stem (iPS) cells were cultured in a minimal, serum-free media that contained human recombinant bFGF at a concentration of 8 ng/mL. The stem cells were plated over a layer of inactivated mouse embryonic fibroblasts, aka MEFs, which secrete additional uncharacterized growth factors and cytokines.
Human naïve state and primed stem cells were cultured in parallel for at least 5 passages to guarantee normal differentiation-free growth. The stem cells were plated in 12-well cell culture plates with 50,000 cells per well. Cells were cultured in their respective media, either bFGF media or NME7AB media for 24 hours. Media was then removed and replaced with media devoid of bFGF or NME7AB, when indicated. Agents being tested for their ability to induce differentiation of naïve stem cells were added to the media at the concentrations indicated. After 72 hours, photographs were taken see FIGS. 1-10.
Human naïve state and primed stem cells were cultured in parallel for at least 5 passages to guarantee normal differentiation-free growth. The stem cells were plated in 12-well cell culture plates with 50,000 cells per well. Cells were cultured in their respective media, either bFGF media or NME7AB media for 24 hours. Media was then removed and replaced with media devoid of bFGF or NME7AB. […] Media was changed after 48 hours and replaced with fresh media containing the BRD4 inhibitors. After 4 days the experiment was stopped. Photographs were taken and cell pellets collected for further analysis, see FIGS. 11-16.

[3] = system: E-cadherin, fibronectin, vimentin and NF1 expression in naïve stem cells; assay: RT-PCR of differentiation markers in treated naïve stem cells; type: cell-based, human
Experimental: FIG. 161 is a graph of RT-PCR measurement of naïve stem cells that have been treated with compounds of the invention. The genes whose expression is measured are E-cadherin, which goes […] as cells undergo epithelial to mesenchymal transition, fibronectin and vimentin, which both increase as stem cells initiate differentiation and NF1, which is one of the first genes to increase when stem cells begin to differentiate down the neural lineage. […] E-cadherin is the opposite; it […] as cells become cancerous. […] Expression of metastatic marker E-cadherin was reduced and expression of differentiation markers fibronectin, vimentin and NF1 were increased (FIG. 162-FIG. 163). Novel compounds of the invention are highly specific. […] Although we discovered that NME1 dimers, NME7AB and NME7-X1 are all activating ligands of the MUC1* growth factor receptor and they bind to its extracellular domain, we have developed ample evidence that both NME7AB and NME7-X1 have other binding partners and can exert oncogenic effects, independent of MUC1*.

Structure (SMILES): Cc1sc2c(c1C)C(c1ccc(Cl)cc1)=N[C@@H](CC(=O)OC(C)(C)C)c1nnc(C)n1-2 [JQ1+, JQ1]
- effect on naïve stem cell differentiation and growth [1]: dramatically induced differentiation
- effect on naïve stem cell differentiation and growth ([1]; listed as JQI): inhibitory effect
- effect on primed stem cell colony size and morphology ([2]; listed as JQ1(+)): modest effect on the size of primed stem cell colonies; also recorded: some abnormal morphology
- induction of differentiation of primed state stem cells ([2]; listed as JQ1(+)): None of these agents appeared to induce differentiation
- induction of differentiation of primed state stem cells ([2]; listed as JQI): not primed stem cell growth
- up-regulation of markers of differentiation in naïve stem cells (RT-PCR) [3]: did not cause up-regulation of markers of differentiation
